Laboratory results taken from paper PMC5101133 (Nature biotechnology, 2016).

Columns and labels:
Assay in all cases: NADH fluorescence
Type in all cases: biochemical
Conditions in all cases: 1 mM NAD+, 50 mM Tris pH 8.0, 150 mM NaCl, 0.1% Triton X-100
[1] = target: ALDH3A2^CΔ25 (FALDH) (Homo sapiens, UniProt P51648)
[2] = target: T1, Hfd1p^CΔ25 (MBP-Hfd1^CΔ25) (Saccharomyces cerevisiae, UniProt Q04458)
T1 sequence (Q04458 1-507): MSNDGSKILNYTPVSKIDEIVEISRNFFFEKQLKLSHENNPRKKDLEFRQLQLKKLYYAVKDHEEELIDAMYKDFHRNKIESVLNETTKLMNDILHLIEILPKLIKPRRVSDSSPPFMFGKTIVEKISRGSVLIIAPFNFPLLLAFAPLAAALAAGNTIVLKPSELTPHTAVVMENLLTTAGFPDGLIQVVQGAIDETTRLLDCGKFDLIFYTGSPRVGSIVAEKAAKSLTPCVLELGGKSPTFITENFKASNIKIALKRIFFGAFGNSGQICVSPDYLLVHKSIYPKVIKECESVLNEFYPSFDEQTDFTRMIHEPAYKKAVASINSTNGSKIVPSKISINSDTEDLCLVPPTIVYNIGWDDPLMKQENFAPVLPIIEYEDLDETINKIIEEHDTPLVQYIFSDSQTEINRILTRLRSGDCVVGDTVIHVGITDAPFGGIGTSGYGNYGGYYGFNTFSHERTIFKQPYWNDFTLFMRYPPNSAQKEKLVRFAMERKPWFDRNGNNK

[3] = target: T2, ALDH3A1 (Homo sapiens, UniProt P30838)
T2 sequence (P30838 1-453): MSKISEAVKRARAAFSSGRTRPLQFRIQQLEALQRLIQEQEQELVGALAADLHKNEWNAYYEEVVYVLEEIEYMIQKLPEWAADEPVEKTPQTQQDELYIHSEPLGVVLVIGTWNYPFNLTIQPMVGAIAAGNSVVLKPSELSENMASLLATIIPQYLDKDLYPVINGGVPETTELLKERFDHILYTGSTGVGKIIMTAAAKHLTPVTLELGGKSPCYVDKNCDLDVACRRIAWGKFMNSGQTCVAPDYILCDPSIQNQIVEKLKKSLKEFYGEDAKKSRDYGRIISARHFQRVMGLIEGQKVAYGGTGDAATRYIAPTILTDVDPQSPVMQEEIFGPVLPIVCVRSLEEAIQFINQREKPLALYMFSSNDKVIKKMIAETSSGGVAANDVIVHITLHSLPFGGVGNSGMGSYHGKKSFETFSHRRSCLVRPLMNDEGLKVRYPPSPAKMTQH

Chain of ALDH3A2^CΔ25 (FALDH) (P51648 1-460, stated change not applied): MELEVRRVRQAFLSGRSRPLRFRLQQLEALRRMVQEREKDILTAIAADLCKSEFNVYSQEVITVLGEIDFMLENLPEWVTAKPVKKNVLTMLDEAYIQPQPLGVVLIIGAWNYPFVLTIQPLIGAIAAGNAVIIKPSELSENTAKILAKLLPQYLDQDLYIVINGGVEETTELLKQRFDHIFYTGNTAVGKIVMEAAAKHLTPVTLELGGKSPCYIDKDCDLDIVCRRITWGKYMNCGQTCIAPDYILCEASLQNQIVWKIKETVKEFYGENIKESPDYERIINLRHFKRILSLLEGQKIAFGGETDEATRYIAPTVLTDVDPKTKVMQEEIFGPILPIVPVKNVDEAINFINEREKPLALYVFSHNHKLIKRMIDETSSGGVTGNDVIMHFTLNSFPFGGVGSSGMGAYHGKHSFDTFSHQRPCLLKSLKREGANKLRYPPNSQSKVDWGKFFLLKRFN

| Compound | KM [1] | KM [2] | KM [3] |
| --- | --- | --- | --- |
| CCCCCCCCCCCCCCCC=O [hexadecanal] | ALDH3A2 shows a strong substrate preference for hexadecanal over 4-HBz | we observed Hfd1p activity in vitro with hexadecanal, similar to that observed with 4-HBz | – |
| O=Cc1ccc(O)cc1 [4-HBz] | – | WT Hfd1p catalyzes NAD^+-dependent dehydrogenation of 4-HBz | Hfd1p and ALDH3A1 show a preference for 4-HBz |
